The assay has as its system Mouse Acetylcholine-Bromide-Induced Abdominal Constriction. The assay can be described thus: Mouse Acetylcholine-Bromide-Induced Abdominal Constriction Assay. The assay is classed as in vivo. Particulars: p.o. 30 minutes before 5.5 mg/kg i.p. acetylcholine bromide, ten minute observation; for % Inhibition 30 mg Kg (percent inhibition of writhing, % analgesia): at least 20 animals per group; for ED50: Mus musculus, po, four doses, probit analysis, read-out: ED50 (that dose which inhibits writhing by 50%). The method, then:
Mouse Acetylcholine-Bromide-Induced Abdominal Constriction Assay
The mouse acetylcholine-induced abdominal constriction assay, as described by Collier et al. in Brit. J. Pharmacol. Chemother, 32: 295-310, 1968, with minor modifications was one test used to assess analgesic potency. The test drugs or appropriate vehicle were administered p.o. and 30 minutes later the animals received an i.p. injection of 5.5 mg/kg acetylcholine bromide (Matheson, Coleman and Bell, East Rutherford, N.J.). The mice where then placed in groups of four into glass bell jars and observed for a ten minute observation period for the occurrence of a writhe which is defined as a wave of constriction and elongation passing caudally along the abdominal wall, accompanied by a twisting of the trunk and followed by extension of the hind limbs. The percent inhibition of writhing (equated to % analgesia) was calculated as follows: The % inhibition of writhing, i.e., % analgesia is equal to the difference between the number of control animals writhing and the number of drug-treated animals writhing times 100 divided by the number of control animals writhing.
At least 20 animals were used for control and in each of the drug treated groups. Four doses were used to determine each dose response curve and ED50 (that dose which inhibits writhing by 50%). The ED50 values and their 95% fiducial limits were determined by a computer assisted probit analysis.
Background: An intraperitoneal irritant provokes the stretching counted in writhing tests.

Molecules are shown by their SMILES.

As for `Brc1ccccc1C1CCC2CCCN21` (single isomer, unassigned) [2f (diasteriomer A), 3-(2-bromophenyl)hexahydro-1H-pyrrolizine], the “% Inhibition 30 mg Kg (percent inhibition of writhing, % analgesia)” value is 60%.
By ED50 is commonly meant the dose that gives a 50% effect, or the effect in half of the subjects. `Brc1ccccc1C1CCC2CCCN21` (single isomer, unassigned) [2f (diasteriomer B), 3-(2-bromophenyl)hexahydro-1H-pyrrolizine]: the “% Inhibition 30 mg Kg (percent inhibition of writhing, % analgesia)” value was determined as 100% and the 50% effective dose (ED50) came out at 8.7 mg/kg.
`c1ccc(C2CCC3CCCN32)cc1` (stereo not drawn) [Example 1, Hexahydro-3-phenyl-1H-pyrrolizine]: the “% Inhibition 30 mg Kg (percent inhibition of writhing, % analgesia)” value is 100% and the median effective dose (ED50) turned out to be 5.7 mg/kg.
Regarding `Cc1ccc(C2CCC3CCCN32)cc1` (stereo not drawn) [Example 3d, Hexahydro-3-(4-methylphenyl)-1H-pyrrolizine], the “% Inhibition 30 mg Kg (percent inhibition of writhing, % analgesia)” value came out at 100%.

Source of the values: patent US4800207A, “Hexahydropyrrolizine compounds useful as analgesics” (McNeilab, Inc., priority 1987, dated 1989).
